# Results as given in US11053253B2, “Macrocyclic compounds for treatment of medical disorders” (Achillion Pharmaceuticals, Inc., priority 2017, dated 2021).
# pIC50: −log10 of the molar value. Where two headings read alike, the source gives them in different places.
# Experiments:
# [1] = rcm bond, toluene, 80.0 °C
# [2] = rcm bond; 20-membered ring; Grubbs II; toluene; 1.6 mM; 80.0 °C
# Human Factor D = Human Factor D (Homo sapiens (Human), UniProt P00746); assay: Human Factor D Assay; type: biochemical; details: Human Factor D 80 nM, substrate Z-L-Lys-SBzl, DTNB, A405; read-out: IC50 (Stars)
# Human Factor D, sequence (P00746 26-253): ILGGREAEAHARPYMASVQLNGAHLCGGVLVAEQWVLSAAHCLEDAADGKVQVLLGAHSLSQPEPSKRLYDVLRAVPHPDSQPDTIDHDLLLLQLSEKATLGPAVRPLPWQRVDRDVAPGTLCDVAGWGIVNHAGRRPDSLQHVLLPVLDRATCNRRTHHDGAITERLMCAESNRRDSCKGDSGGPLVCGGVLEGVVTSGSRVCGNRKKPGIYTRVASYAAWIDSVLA
# Procedure, shortened: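 Serum-purified enzyme (80 nM final) was preincubated with compound 5 min at room temperature in 50 mM Tris, 1M NaCl, pH 7.5. Z-L-Lys-SBzl and DTNB ([…] each, final) were added and A405 followed every 30 s for 30 min; IC50 from nonlinear regression of reaction rates.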
Compound,pIC50 (Human Factor D),other results
Cc1ncc(-c2cc3c(C#N)nn4c3c(n2)CC=CCCCC(=O)NC[C@]23C[C@@H](C(=O)Nc5nc(Br)ccc5C)N[C@@]2(C3)C(=O)C4)cn1,–,"ring closure, isolated yield ([1]; from C=CCCCC(=O)NC[C@]12C[C@@H](C(=O)Nc3nc(Br)ccc3C)N[C@]1(C(=O)Cn1nc(C#N)c3cc(-c4cnc(C)nc4)nc(CC=C)c31)C2, 17-membered ring, Grubbs II, 1.27 mM, 16.0 h): 44.8%"
"(4^1R,4^3S,4^5S,Z)-1^3-acetyl-N-(6-bromo-3-methylpyridin-2-yl)-3,14-dioxo-1^1H-6-oxa-4^2,13,15-triaza-1(1,6)-indazola-4(2,5)-bicyclo[3.1.0]hexanacyclopentadecaphan-8-ene-43-carboxamide",–,"ring closure, yield after HPLC [2]: 2.1%"
CN1CC=CCOCc2ccc(Br)nc2NC(=O)[C@@H]2C[C@]3(C[C@H]3N2C(=O)OC(C)(C)C)C1,–,"ring closure, isolated yield ([1]; from C=CCOCc1ccc(Br)nc1NC(=O)[C@@H]1C[C@@]2(CN(C)CC=C)C[C@H]2N1C(=O)OC(C)(C)C, 15-membered ring, Hoveyda-Grubbs II (extra 5 mg portions), 10.0 mM, 2.0 h): 68%"
CC(=O)c1nn(CC(=O)N2[C@H]3C[C@@]4(COCC=CCOCc5ccc(Br)nc5NC3=O)C[C@@H]24)c2c(C)cc(-c3cnc(C)nc3)cc12 [Compound T-192],> 6.00,–
CC(=O)c1nn2c3c(cc(-c4cnc(C)nc4)cc13)CCCCCCC(=O)NC[C@@]1(F)C[C@@H](C(=O)Nc3nc(Br)ccc3C)N(C1)C(=O)C2 [Compound T-175],> 6.00,–
CC(=O)c1nn2c3c(cc(-c4cnc(C)nc4)cc13)CCCCCCC(=O)NC[C@@]13C[C@@H](C(=O)Nc4cccc(-c5cc(F)c(F)cc5Cl)c4F)N(C(=O)C2)[C@@H]1C3 [Compound T-222],> 6.00,–
CC(=O)c1nn(CC(=O)N2C[C@@]3(F)CNC(=O)CCCCCOCc4ccc(Br)nc4NC(=O)[C@@H]2C3)c2ccc(-c3cnc(C)nc3)cc12 [Compound T-178],> 6.00,–
CC(=O)c1nn(CC(=O)N2[C@H]3C[C@@]4(COCCCCCCCc5ccc(Br)nc5NC3=O)C[C@@H]24)c2ccc(-c3cnc(C)nc3)cc12 [Compound T-40],> 6.00,–
"CC(=O)c1nn(CC(=O)N2[C@H]3C[C@]4(C[C@@H]24)CN(C)CCCCC=Cc2ccc(Br)nc2NC3=O)c2ccc(-c3cnc(C)nc3)cc12 [Compound T-8, (41R,43S,45R)-42-(2-(3-acetyl-5-(2-methylpyrimidin-5-yl)-1H-indazol-1-yl)acetyl)-16-bromo-6-methyl-42,2,6-triaza-1(2,3)-pyridina-4(3,5)-bicyclo[3.1.0]hexanacyclododecaphan-11-en-3-one]",> 6.00,–
CC(=O)c1nn2c3c(cc(-c4cnc(C)nc4)cc13)CC=CCC[C@H](C)C(=O)N(C)C[C@@]13C[C@@H](C(=O)Nc4nc(C(F)(F)F)ccc4C)N(C(=O)C2)[C@@H]1C3 [Compound T-243],> 6.00,–
CC(=O)c1nn2c3c(cc(-c4ccc5nc(C)nn5c4)cc13)CCCCCCC(=O)NC[C@@]13C[C@@H](C(=O)Nc4nc(C(F)(F)F)ccc4C)N(C(=O)C2)[C@@H]1C3 [Compound T-257],> 6.00,–
CC(=O)c1nn(CC(=O)N2[C@H]3C[C@@]4(COCCCCCCCc5ccc(Br)nc5NC3=O)C[C@@H]24)c2cnc(-c3cnc(C)nc3)cc12 [Compound T-41],> 6.00,–
CC(=O)c1nn(CC(=O)N2[C@H]3C[C@@]4(C=CCCCCCCc5ccc(Br)nc5NC3=O)C[C@@H]24)c2ccc(-c3cnc(C)nc3)cc12 [Compound T-48],> 6.00,–
CC(=O)c1nn2c3c(cc(-c4cnc(C)nc4)cc13)CCCCCCCOC[C@@]13C[C@@H](C(=O)Nc4nc(Br)ccc4C)N(C(=O)C2)[C@@H]1C3 [Compound T-108],> 6.00,–
"CC(=O)c1nn(CC(=O)N2[C@H]3C[C@]4(C[C@@H]24)CN(C)CC=CCOCc2ccc(Br)nc2NC3=O)c2ccc(-c3cnc(C)nc3)cc12 [Compound T-6, (41R,43S,45R)-42-(2-(3-acetyl-5-(2-methylpyrimidin-5-yl)-1H-indazol-1-yl)acetyl)-16-bromo-6-methyl-11-oxa-42,2,6-triaza-1(2,3)-pyridina-4(3,5)-bicyclo[3.1.0]hexanacyclododecaphan-8-en-3-one]",> 6.00,–
CC(=O)c1nn2c3c(cc(-c4cnc(C)nc4)cc13)CCCCCCC(=O)NC[C@@]13C[C@@H](C(=O)NC[Si](C)(C)C)N(C(=O)C2)[C@@H]1C3 [Compound T-196],5.00 to 6.00,–
CC(=O)c1nn2c3c(cc(-c4cnc(C)nc4)cc13)CCCCCCC(=O)NC[C@@]13C[C@@H](C(=O)N[C@@H](C)CC(C)(C)C)N(C(=O)C2)[C@@H]1C3 [Compound T-226],> 6.00,–
CC(=O)c1nn2c3c(cc(-c4cnc(C)nc4)cc13)CCCCCCC=CCc1ccc(Br)nc1NC(=O)[C@@H]1C[C@@]3(C)C[C@H]3N1C(=O)C2 [Compound T-37],> 6.00,–
CC(=O)c1nn2c3c(cc(-c4cnc(C)nc4)cc13)CCCCCCC(=O)N(C)C[C@@]13C[C@@H](C(=O)Nc4ccn(CC(F)(F)F)n4)N(C(=O)C2)[C@@H]1C3 [Compound T-203],> 6.00,–

Compound,pIC50 (Human Factor D),other results
CC(=O)c1nn(CC(=O)N2[C@H]3C[C@@]4(CCCCCCCOCc5ccc(Br)nc5NC3=O)C[C@@H]24)c2c(CF)cc(-c3cnc(C)nc3)cc12 [Compound T-87],> 6.00,–
CC(=O)c1nn2c3c(cc(-c4cnc5cc(C6CC6)nn5c4)cc13)CCCCCCC(=O)NC[C@@]13C[C@@H](C(=O)Nc4nc(C(F)(F)F)ccc4C)N(C(=O)C2)[C@@H]1C3 [Compound T-258],> 6.00,–
Cc1ncc(-c2cc3c(C#N)nn4c3c(n2)CCCCCCOC[C@@]23C[C@@H](C(=O)Nc5nc(C(F)(F)F)ccc5C)N(C(=O)C4)[C@@H]2C3)cn1 [Compound T-155],> 6.00,–
CC(=O)c1nn2c3c(cc(-c4cnc(C)nc4)cc13)CCCCCCC(=O)NC[C@@]13C[C@@H](C(=O)Nc4cc(F)cc(Br)n4)N(C(=O)C2)[C@@H]1C3 [Compound T-90],> 6.00,–
"CC(=O)c1nn(CC(=O)N2[C@H]3C[C@@]4(COCCCCOCc5ccc(Br)nc5NC3=O)C[C@@H]24)c2ccc(-c3cnc(C)nc3)cc12 [Compound T-4, (41R,43S,45S)-42-(2-(3-acetyl-5-(2-methylpyrimidin-5-yl)-1H-indazol-1-yl)acetyl)-16-bromo-6,11-dioxa-42,2-diaza-1(2,3)-pyridina-4(3,5)-bicyclo[3.1.0]hexanacyclododecaphan-3-one]",> 6.00,–
CC(=O)c1nn(CC(=O)N2[C@H]3C[C@@]4(CCCC=CCOCc5ccc(Br)nc5NC3=O)C[C@@H]24)c2c(CF)cc(-c3cnc(C)nc3)cc12 [Compound T-89],> 6.00,–
COc1cc(NC(=O)[C@@H]2C[C@]34CNC(=O)CCCCCCc5cc(-c6cnc(C)nc6)cc6c(C(C)=O)nn(c56)CC(=O)N2[C@@H]3C4)nc(Br)c1F [Compound T-228],> 6.00,–
CC(=O)c1nn(CC(=O)N2[C@H]3C[C@@]4(CNC(=O)C(C)(C)CCCOCc5ccc(Br)nc5NC3=O)C[C@@H]24)c2ccc(-c3cnc(C)nc3)cc12 [Compound T-130],> 6.00,–
CC(=O)c1nn(CC(=O)N2C[C@@]3(F)CNC(=O)C(C)(C)CCCCOCc4ccc(Br)nc4NC(=O)[C@@H]2C3)c2cnc(-c3cnc(C)nc3)cc12 [Compound T-171],> 6.00,–
CCCCCNC(=O)[C@@H]1C[C@]23CNC(=O)CCCCCCc4cc(-c5cnc(C)nc5)cc5c(C(C)=O)nn(c45)CC(=O)N1[C@@H]2C3 [Compound T-200],> 6.00,–
"CC(=O)c1cc2n(n1)CC(=O)N1[C@@H](C[C@@]3(C)C[C@@H]13)C(=O)Nc1nc(Br)ccc1COC/C=C\CCNC2=O [Compound T-15, (18aS,19aR,20aR,Z)-2-acetyl-15-bromo-19a-methyl-6,7,12,17,18a,19,19a,20,20a,23-decahydro-4H-cyclopropa[4,5]pyrrolo[2,1-g]pyrazolo[1,5-k]pyrido[3,2-c][1,5,8,11,14]oxatetraazacyclononadecine-4,18,22(5H,10H)-trione]",< 5.00,–
CC(=O)c1nn2c3cc(ccc13)OC(=O)NCCCC=CCOC[C@@]13C[C@@H](C(=O)Nc4nc(Br)ccc4C)N(C(=O)C2)[C@@H]1C3,–,"ring closure, isolated yield ([1]; from C=CCCCNC(=O)Oc1ccc2c(C(C)=O)nn(CC(=O)N3[C@H](C(=O)Nc4nc(Br)ccc4C)C[C@@]4(COCC=C)C[C@@H]34)c2c1, 20-membered ring, Grubbs II, 1.48 mM, 16.0 h): 4.1%"
CC(=O)c1nn2c3c(cc(-c4cnc(C)nc4)cc13)CCCCCCC(=O)NC[C@@]13C[C@@H](C(=O)N[C@H](C)c4ccccc4)N(C(=O)C2)[C@@H]1C3 [Compound T-188],> 6.00,–
CC(=O)c1nn2c3c(cc(-c4cnc(C)nc4)cc13)CCCCCCC(=O)NC[C@@]13C[C@@H](C(=O)Nc4nc(Br)ccc4C4CC4)N(C(=O)C2)[C@@H]1C3 [Compound T-212],> 6.00,–
CC(=O)c1nn2c3c(cc(-c4cnc(C)nc4)cc13)CCCCCCC(=O)NC[C@@]13C[C@@H](C(=O)NCc4cccc(Cl)c4F)N(C(=O)C2)[C@@H]1C3 [Compound T-86],> 6.00,–
CC(=O)c1nn(CC(=O)N2[C@H]3C[C@@]4(CNC(=O)C(C)(C)CCCCCc5ccc(Br)nc5NC3=O)C[C@@H]24)c2cnc(-c3cnc(C)nc3)cc12 [Compound T-180],> 6.00,–
CC(=O)c1nn2c3c(cc(-c4cnc(C)nc4)cc13)CCCCCCC(=O)NC[C@@]13C[C@@H](C(=O)N[C@@H](C)c4ccccc4)N(C(=O)C2)[C@@H]1C3 [Compound T-176],> 6.00,–
"CC(=O)c1nn2c3c(cc(-c4cnc(C)nc4)cc13)CCCCCCCCCOC[C@@]13C[C@@H](C(=O)Nc4nc(Br)ccc4C)N(C(=O)C2)[C@@H]1C3 [Compound T-24, (41R,43S,45S)-13-acetyl-N-(6-bromo-3-methylpyridin-2-yl)-15-(2-methylpyrimidin-5-yl)-3-oxo-11H-6-oxa-42-aza-1(1,7)-indazola-4(2,5)-bicyclo[3.1.0]hexanacyclopentadecaphane-43-carboxamide]",> 6.00,–
